Source: ChEMBL document CHEMBL1150754, “Chemical and pharmaceutical studies on medicinal plants in Paraguay. Geraniin, an angiotensin-converting enzyme inhibitor from "paraparai mi," Phyllanthus niruri” (J Nat Prod, 1988)

Molecular target: Angiotensin-converting enzyme (Homo sapiens, UniProt P12821)
Assay: Inhibition of ACE by fluorometric assay

Angiotensin-converting enzyme, sequence (P12821 whole entry): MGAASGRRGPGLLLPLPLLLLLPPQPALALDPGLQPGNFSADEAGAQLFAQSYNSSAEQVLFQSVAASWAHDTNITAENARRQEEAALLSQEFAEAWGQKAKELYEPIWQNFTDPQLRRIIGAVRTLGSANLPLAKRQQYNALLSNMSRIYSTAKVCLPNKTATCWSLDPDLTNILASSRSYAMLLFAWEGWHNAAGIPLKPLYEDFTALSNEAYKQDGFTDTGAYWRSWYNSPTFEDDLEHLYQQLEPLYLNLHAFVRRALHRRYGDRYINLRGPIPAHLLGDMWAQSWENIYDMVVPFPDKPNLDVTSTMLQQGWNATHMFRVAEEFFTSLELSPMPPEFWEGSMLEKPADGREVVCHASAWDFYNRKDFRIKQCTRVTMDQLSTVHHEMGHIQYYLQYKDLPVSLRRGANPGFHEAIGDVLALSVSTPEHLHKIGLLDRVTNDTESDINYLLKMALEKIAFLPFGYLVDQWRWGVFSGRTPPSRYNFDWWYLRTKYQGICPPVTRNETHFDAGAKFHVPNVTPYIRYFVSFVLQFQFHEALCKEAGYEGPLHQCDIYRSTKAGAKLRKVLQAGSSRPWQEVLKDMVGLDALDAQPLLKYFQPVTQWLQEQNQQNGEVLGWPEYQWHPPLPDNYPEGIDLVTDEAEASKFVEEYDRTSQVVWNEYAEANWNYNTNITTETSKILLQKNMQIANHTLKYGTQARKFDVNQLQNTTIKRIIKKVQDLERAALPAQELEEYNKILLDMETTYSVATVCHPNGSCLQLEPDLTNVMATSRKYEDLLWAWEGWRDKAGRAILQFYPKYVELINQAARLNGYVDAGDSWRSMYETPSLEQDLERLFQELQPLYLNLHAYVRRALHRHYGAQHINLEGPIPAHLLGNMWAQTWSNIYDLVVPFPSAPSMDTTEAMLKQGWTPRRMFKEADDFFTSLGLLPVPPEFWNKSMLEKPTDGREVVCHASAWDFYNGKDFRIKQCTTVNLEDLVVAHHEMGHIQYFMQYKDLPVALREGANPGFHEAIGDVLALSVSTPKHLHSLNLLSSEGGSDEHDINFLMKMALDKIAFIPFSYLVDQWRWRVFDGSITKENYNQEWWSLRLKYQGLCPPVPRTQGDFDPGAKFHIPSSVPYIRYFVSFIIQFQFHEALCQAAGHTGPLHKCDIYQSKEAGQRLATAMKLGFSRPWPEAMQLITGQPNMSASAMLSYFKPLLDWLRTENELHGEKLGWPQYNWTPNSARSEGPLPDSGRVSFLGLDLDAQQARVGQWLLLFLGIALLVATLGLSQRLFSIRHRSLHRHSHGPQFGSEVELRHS

IC50 [mM] | Compound
5 | O=c1oc2c(O)c(O)cc3c(=O)oc4c(O)c(O)cc1c4c23 [ELLAGIC ACID]
0.4 | O=C1O[C@H]2[C@@H]3OC(=O)c4cc(O)c(O)c(O)c4-c4c(cc(O)c(O)c4O)C(=O)OC[C@H]2O[C@@H](OC(=O)c2cc(O)c(O)c(O)c2)[C@@H]3OC(=O)c2cc(O)c(O)c3c2[C@@H]2C1=CC(=O)[C@](O)(O3)C2(O)O [GERANIIN]
3.7 | O=C(O[C@@H]1O[C@@H]2COC(=O)c3cc(O)c(O)c(O)c3-c3c(cc(O)c(O)c3O)C(=O)O[C@H]([C@H]1O)[C@@H]2O)c1cc(O)c(O)c(O)c1 [CORILAGIN]

Compound | IC50 [mM]
O=C(O)c1cc(O)c(O)c(O)c1 [GALLIC ACID] | 7.7
